In data set [1] the test system is Helicobacter pylori. Put plainly: Activity against Helicobacter pylori, agar method of Iwahi et al. (MIC 50). The class given is cell-based. To be noted: Helicobacter pylori, 96 h; Columbia agar (Oxoid), growth period of 4 days; approximate values; read-out: Appr. MIC 50. An excerpt: The compounds of the formula I were investigated with respect to their activity against Helicobacter pylori following the method described by Tomoyuki Iwahi et al. (Antimicrobial Agents and Chemotherapy, 1991, 490-496) using Columbia agar (Oxoid) and a growth period of 4 days.

SMILES strings stand for the structures. Bounds are passed on as bounds.

Take `Cc1nc(C)c(Cl)c(NCc2nccc(OCCSCCn3c([N+](=O)[O-])cnc3C)c2C)n1` [Compound 32, (5-Chloro-2,6-dimethyl-pyrimidin-4-yl)-(3-methyl-4-{2-[2-(2-methyl-5-nitro-imidazol-1-yl)-ethylsulfanyl]-ethoxy}-pyridin-2-ylmethyl)-amine]: the melting point fell in the range of 139 to 144 °C. Further, in data set [1], the MIC50 was at most 0.1 µg/mL.

Source of the values: US6395732B1, “Pyrimidin-aminomethyl-pyridine derivatives, their preparation and their use in the control of helicobacter bacteria” (BYK Gulden Lomberg Chemische Fabrik GmbH, priority 1998, dated 2002).
